Source: patent US7897596B2, “Allosteric modulators of the A1 adenosine receptor” (King Pharmaceuticals Research & Development, Inc., priority 2006, dated 2011)

Target: T1, human A1 adenosine receptors (Homo sapiens, UniProt P30542)
T1 construct: expressed in transfected cells; host or cells: CHO cells (hCHO-A1 clone)
T1 sequence (P30542 1-326): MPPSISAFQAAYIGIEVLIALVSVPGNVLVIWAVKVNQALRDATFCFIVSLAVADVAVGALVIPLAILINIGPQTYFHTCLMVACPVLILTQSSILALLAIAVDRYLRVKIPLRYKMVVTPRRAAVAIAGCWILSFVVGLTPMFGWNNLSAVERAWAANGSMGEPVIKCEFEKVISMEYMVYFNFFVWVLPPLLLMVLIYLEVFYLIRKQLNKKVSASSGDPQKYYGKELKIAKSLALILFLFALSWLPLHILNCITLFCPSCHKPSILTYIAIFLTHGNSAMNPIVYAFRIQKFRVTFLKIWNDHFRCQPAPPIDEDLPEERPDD
Experiment: Saturation binding of [3H]CCPA to hCHO-A1
Method: The hCHO-A1, hCHO-A2A and hCHO-A3 cell clones are grown adherently and maintained in Dulbecco's modified Eagle's medium with nutrient mixture F12, containing 10% fetal calf serum, penicillin (100 U/mL), streptomycin (100 μg/mL), L-glutamine (2 mM), geneticine (G418, 0.2 mg/mL) at 37° C. in 5% CO2/95% air (Klotz et al. Naunyn-Schmied. Arch Pharm. 1998, 357, 1-9). Cells are split two or three times weekly at a ratio of between 1:5 and 1:10. For membrane preparation the culture medium is removed. The cells are washed with PBS and scraped off T75 flasks in ice-cold hypotonic buffer (5 mM Tris HCl, 2 mM EDTA, pH 7.4). The cell suspension is homogenized with Polytron and the homogenate is spun for 10 min at 1,000×g. […] The protein concentration is determined according to a Bio-Rad method (Bradford, 1976) with bovine albumin as a standard reference.
To determine the effect of the compounds of the present invention on the binding to A1, A2A and A3 receptors, membranes from hCHO-A1, hCHO-A2A, hCHO-A3 are incubated in a buffer solution in the absence and in the presence of the examined compounds. […] Bound and free radioactivity are separated by filtering the assay mixture through Whatman GF/B glass fibre filters using a Micro-mate 196 cell harvester (Packard Instrument Company). The filter bound radioactivity was counted on Top Count Microplate Scintillation Counter (efficacy […]) with Micro 20. […]

## Nc1scc(CN2CCC3(CC2)Oc2cccc(F)c2O3)c1C(=O)c1ccc(Cl)cc1 [Example 60, {2-Amino-4-(4-fluorospiro[benzo[d][1,3]-dioxole-2,4′-piperidine]-1′-ylmethyl)thiophen-3-yl}(4-chlorophenyl)methanone]
  increase in the BMAX value of the agonist [3H]CCPA: about 6 fold
